The source made the active and inactive calls. No cut-off for these calls is given here.
Key:
[1] = biological target: T1, Peroxisome proliferator-activated receptor delta (Homo sapiens, UniProt Q03181); experiment: Antagonist activity against pSG5-Gal4-tagged human PPAR-beta/delta ligand binding domain expressed in COS1 cells assessed as inhibition of GW501516-induced receptor activation incubated for 19 hrs by pGL3-5XUAS-SV40 luciferase reporter gene assay; format: cell-based, COS-1
T1 sequence (Q03181 whole entry): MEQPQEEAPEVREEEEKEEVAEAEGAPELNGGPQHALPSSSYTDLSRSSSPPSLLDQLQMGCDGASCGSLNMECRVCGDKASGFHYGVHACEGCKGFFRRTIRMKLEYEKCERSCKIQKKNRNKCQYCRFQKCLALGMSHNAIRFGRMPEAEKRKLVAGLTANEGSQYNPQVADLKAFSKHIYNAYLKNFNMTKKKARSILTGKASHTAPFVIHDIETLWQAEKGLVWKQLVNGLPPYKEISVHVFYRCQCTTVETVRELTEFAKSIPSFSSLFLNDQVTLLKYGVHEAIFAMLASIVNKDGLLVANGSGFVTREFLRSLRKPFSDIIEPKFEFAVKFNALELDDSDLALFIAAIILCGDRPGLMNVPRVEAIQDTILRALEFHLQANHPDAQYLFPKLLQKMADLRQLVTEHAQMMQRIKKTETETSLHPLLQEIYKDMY

[2] = biological target: T1, Peroxisome proliferator-activated receptor delta; experiment: Agonist activity at pSG5-Gal4-tagged human PPAR-beta/delta ligand binding domain expressed in COS1 cells assessed as receptor activation incubated for 19 hrs by pGL3-5XUAS-SV40 luciferase reporter gene assay; format: cell-based; settings: cos-1
[3] = biological target: T2, Peroxisome proliferator-activated receptor alpha (Homo sapiens) (UniProt Q07869); experiment: Antagonist activity against pSG5-Gal4-tagged human PPAR-alpha ligand binding domain expressed in COS1 cells assessed as inhibition of bezafibrate-induced receptor activation at 1 nM to 100000 nM incubated for 19 hrs by pGL3-5XUAS-SV40 luciferase reporter gene assay; format: cell-based; settings: COS-1
T2 sequence (whole entry): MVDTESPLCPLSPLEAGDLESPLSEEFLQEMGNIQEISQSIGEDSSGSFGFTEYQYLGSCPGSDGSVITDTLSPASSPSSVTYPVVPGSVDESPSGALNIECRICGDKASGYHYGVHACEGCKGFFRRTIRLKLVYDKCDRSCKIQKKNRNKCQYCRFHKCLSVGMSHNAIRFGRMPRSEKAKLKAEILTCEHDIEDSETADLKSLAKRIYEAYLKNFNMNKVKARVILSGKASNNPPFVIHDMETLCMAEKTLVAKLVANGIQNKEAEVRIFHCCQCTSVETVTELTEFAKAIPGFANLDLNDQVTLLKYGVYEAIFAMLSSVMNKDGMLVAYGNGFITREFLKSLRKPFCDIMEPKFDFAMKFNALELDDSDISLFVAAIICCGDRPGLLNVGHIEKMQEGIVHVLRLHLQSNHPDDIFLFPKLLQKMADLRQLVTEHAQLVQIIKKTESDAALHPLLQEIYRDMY

[4] = biological target: T3, Peroxisome proliferator-activated receptor gamma (Homo sapiens) (UniProt P37231); experiment: Antagonist activity against pSG5-Gal4-tagged human PPAR-gamma ligand binding domain expressed in COS1 cells assessed as inhibition of rosiglitazone-induced receptor activation at 20 nM to 20000 nM incubated for 19 hrs by pGL3-5XUAS-SV40 luciferase reporter gene assay; format: cell-based; settings: COS-1
T3 sequence (whole entry): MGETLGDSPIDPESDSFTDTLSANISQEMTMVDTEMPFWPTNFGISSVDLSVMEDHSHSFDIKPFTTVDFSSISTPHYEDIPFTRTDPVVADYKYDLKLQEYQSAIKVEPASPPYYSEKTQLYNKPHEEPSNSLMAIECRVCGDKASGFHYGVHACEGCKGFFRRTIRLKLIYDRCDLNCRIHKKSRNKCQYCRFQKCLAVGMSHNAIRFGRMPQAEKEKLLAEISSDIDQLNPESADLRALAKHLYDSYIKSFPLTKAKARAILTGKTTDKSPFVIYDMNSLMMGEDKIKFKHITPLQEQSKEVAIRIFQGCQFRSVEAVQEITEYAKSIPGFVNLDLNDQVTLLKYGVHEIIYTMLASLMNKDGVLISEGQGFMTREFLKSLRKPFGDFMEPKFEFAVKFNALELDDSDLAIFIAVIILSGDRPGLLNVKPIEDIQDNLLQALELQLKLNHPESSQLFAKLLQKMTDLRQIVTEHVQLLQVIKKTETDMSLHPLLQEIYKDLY

Compound | IC50 ([1]; read-out: IC50) [µM] | EC50 [2] | inhibition [3] | inhibition [4] | IC50 ([1]; cos-1)
O=C(NCCS(=O)(=O)c1ccc(C(F)(F)F)cn1)c1ccc(Cl)cc1 | 5 | Not Active |  |  | 
Cc1nc(-c2ccc(C(F)(F)F)cc2)sc1C(=O)NCCS(=O)(=O)c1ccc(C(F)(F)F)cn1 | 10 | Not Active | inactive | inactive | 
Cc1nc(-c2ccc(C(F)(F)F)cc2)sc1C(=O)NCCS(=O)(=O)c1ccccn1 |  |  |  |  | Not Active

Reference: ChEMBL document CHEMBL3414538, “Synthesis, biological evaluation and molecular modeling studies of the PPARβ/δ antagonist CC618” (Eur J Med Chem, 2015)
